Like-named read-outs stand apart in the source and are kept apart here.
Columns and labels:
[1] = tested on: SKOV-3 (human ovarian carcinoma); assay: Cell Death Detection ELISA Plus, SKOV-3; type: cell-based; conditions: DNA fragmentation ELISA, sample vs negative control; tested at 0.1, 1.0 and 10.0 µg/mL, concentration of the value not stated
Method: (§1) The induction of apoptosis by tested compounds was determined with Cell Death Detection ELISA Plus from Roche Diagnostics GmbH (Mannheim, Germany).
(§2) The Cell Death Detection ELISA PLUS photometric enzyme immunoassay is used to quantitatively in vitro determination of cytoplasmic histone-associated DNA fragments (mono- and oligonucleosomes) after induced cell death. The kit contains a stop solution that allows users to terminate the substrate reaction and run the assay under defined conditions, making it suitable for high-throughput applications. This kit can be used for the relative quantification of histone-complexed DNA fragments (mono- and oligonucleosomes) out of the cytoplasm of cells after the induction of apoptosis or when released from necrotic cells. […] The antibodies used in the assay are not species-specific; therefore, the kit may be used to assay cells from various species. The details of the experiments are given in [74]. As an internal reference compound (cytostatic drug), camptothecin (topoisomerase I-inhibitor) was used in this study to induce apoptosis. The negative control is the sample without camptothecin treatment. […] Cells were counted using a Fuchs–Rosenthal counting chamber (hemocytometer) with modifications. The apoptotic index was calculated based on the enrichment of mono- and oligonucleosomes according to the following equation:apoptotic index = [{A405(sample) − A490(sample)}/{A405(negative control) − A490(negative control)}]

[2] = tested on: PC-3 (human prostate carcinoma); assay: MTT assay, PC-3 cells; type: cell-based; conditions: for IC50: PC-3 cells, value (standard deviation), read-out: IC50 [μM] (±s) PC-3; for Selectivity Index (SI) PC-3: IC50 of HDFs / IC50 of PC-3
Method: (§3) Each medium was supplemented with 10% fetal bovine serum, 1% L-glutamine, and 1% penicillin/streptomycin solution. The cell lines were incubated at 37 °C in a humidified atmosphere containing 5% CO2. Cells were counted using the Fuchs–Rosenthal counting chamber (hemocytometer) with modifications.
(§4) The final product of this reaction gives violet formazan crystals. The number of live cells is proportional to the amount of formazan and is represented by the violet dye reagent. The details of the experiments are given, e.g., in [54].
(§5) Statistical analyses for the cytotoxic activity were carried out using the nonparametric Kruskal–Wallis H test for unpaired data and ANOVA Friedman two-way analysis of variance test for paired data. Statistical significance was tested using Dunn’s post-hoc test. The IC50 values compared to the control IC50 were calculated using GraphPad Prism v. 10.1.1. software.

[3] = tested on: SKOV-3 (human ovarian carcinoma); assay: MTT assay, SKOV-3 cells; type: cell-based; conditions: for IC50: SKOV-3 cells, value (standard deviation), read-out: IC50 [μM] (±s) SKOV-3; for Selectivity Index (SI) SKOV-3: IC50 of HDFs / IC50 of SKOV-3
Method: as §3, §4, §5

[4] = tested on: A-549 (human lung carcinoma); assay: MTT assay, A-549 cells; type: cell-based; conditions: for IC50: Homo sapiens, A549, MTT assay, A-549 cells, value (standard deviation), read-out: IC50 [μM] (±s) A-549; for Selectivity Index (SI) A-549: IC50 of HDFs / IC50 of A-549
Method: as §3, §4, §5

[5] = tested on: CHO (Chinese hamster ovary); assay: MTT assay, CHO cells; type: cell-based; conditions: for IC50: Cricetulus griseus, CHO, MTT assay, CHO cells, value (standard deviation), read-out: IC50 [μM] (±s) CHO; for Selectivity Index (SI) CHO: IC50 of HDFs / IC50 of CHO
Method: as §3, §4, §5

[6] = tested on: HDFs (human dermal fibroblasts); assay: MTT assay, HDFs (normal cells); type: cell-based; conditions: Fibroblast, value (standard deviation), read-out: IC50 [μM] (±s) HDFs
Method: as §3, §4, §5

[7] = tested on: A-549, PC-3, and SKOV-3; assay: MTT assay, statements over the cancer cell lines together; type: cell-based, human; conditions: for IC50: MTT assay, A-549, PC-3 and SKOV-3 together, summary of Table 3, read-out: IC50 stated over the cancer cell lines together; for Selectivity Index stated over the tested cell lines together: IC50 of HDFs / IC50 of cell line, text summary of Table 4
Method: as §3, §4

[8] = tested on: PC-3 (human prostate carcinoma); assay: Cell Death Detection ELISA Plus, PC-3; type: cell-based; conditions: DNA fragmentation ELISA, sample vs negative control; tested at 0.1, 1.0 and 10.0 µg/mL, concentration of the value not stated
Method: as §1, §2

[9] = Solubility (remark); type: physicochemical; conditions: remark among limitations, solvent not stated
[10] = Homo sapiens, SK-OV-3, MTT assay

| Compound | Apoptotic Index (AI) SKOV-3 [1] | IC50 ([2]; Homo sapiens, PC-3, MTT assay) | Selectivity Index (SI) PC-3 [2] | IC50 ([2]; MTT assay) | IC50 [3, 10] | Selectivity Index (SI) SKOV-3 [3] | IC50 ([3]; MTT assay) | IC50 [4] | Selectivity Index (SI) A-549 [4] | IC50 [5] | Selectivity Index (SI) CHO [5] | IC50 [6] | IC50 ([7]; Homo sapiens) | Selectivity Index stated over the tested cell lines together [7] | Apoptotic Index (AI) PC-3 [8] | solubility [9] | IC50 [7] |
| --- | --- | --- | --- | --- | --- | --- | --- | --- | --- | --- | --- | --- | --- | --- | --- | --- | --- |
| CC(=O)O[C@H]1CC[C@@]2(C)C(CC[C@]3(C)C2C[C@H](O)[C@]24OC(=O)[C@@]5(CCC(C)(C)CC52)CC[C@]43C)C1(C)C (stereo partly drawn) [Compound 2, 3β-Acetoxy-12α-hydroxyolean-28-oic acid 28β→13β-olide] | 4.71 (0.11) | 1.88 µM | 2.30 | 3.26 µM | 1.73 µM | 2.54 | 2.96 µM | 4.68 µM | 1.60 | 4.19 µM | 1.79 | 7.51 µM | 1 to 9 µM | exceeds 2 | 4.76 (0.02) | – | – |
| CC(=O)O[C@H]1CC[C@@]2(C)C(CC[C@]3(C)C2CC(=O)[C@]24OC(=O)[C@@]5(CCC(C)(C)CC52)CC[C@@]34C)C1(C)C (stereo partly drawn) [Compound 4, 3β-Acetoxy-12-oxoolean-28-oic acid 28β→13β-olide] | – | 25.9 µM | 1.62 | – | 22.8 µM | 1.84 | – | 24.7 µM | 1.70 | 52.7 µM | 0.79 | 42 µM | 24 to 38 µM | ~2 | – | – | – |
| CC1(C)CC[C@@]23CC[C@@]4(C)[C@]5(C)CCC6C(C)(C)[C@@H](O)CC[C@]6(C)C5CC(=O)[C@]4(OC2=O)C3C1 (stereo partly drawn) [Compound 5, 3β-Hydroxy-12-oxoolean-28-oic acid 28β→13β-olide] | – | 31 µM | 1.67 | – | 37 µM | 1.40 | – | 38 µM | 1.36 | 38.2 µM | 1.35 | 51.8 µM | 24 to 38 µM | – | – | – | – |
| CC(=O)OC1CCC2(C)C(CCC3(C)C2CC(=NO)C24OC(=O)C5(CCC(C)(C)CC52)CCC34C)C1(C)C (stereo not drawn) [Compound 6, 3β-Acetoxy-12-hydroxyiminoolean-28-oic acid 28β→13β-olide] | 7.22 (0.06) | 1.88 µM | 2.08 | – | 1.73 µM | 2.26 | – | 1.27 µM | 3.08 | – | 0.71 | 3.91 µM | 1 to 9 µM | exceeds 2 | 7.28 (0.02) | – | – |
| CC1(C)CC[C@@]23CC[C@@]4(C)[C@]5(C)CCC6C(C)(C)C(=O)CC[C@]6(C)C5CC(=O)[C@]4(OC2=O)C3C1 (stereo partly drawn) [Compound 7, 3,12-Dioxoolean-28-oic acid 28β→13β-olide] | – | > 100 µM | – | – | > 100 µM | – | – | 66.1 µM | – | > 100 µM | – | > 100 µM | > 100 µM | – | – | poor solubility | – |
| CC1(C)CC[C@@]23CC[C@@]4(C)[C@]5(C)CCC6C(C)(C)[C@@H](O)CC[C@]6(C)C5C/C(=N\O)[C@]4(OC2=O)C3C1 (stereo partly drawn) [Compound 8, 3β-Hydroxy-12-hydroxyiminoolean-28-oic acid 28β→13β-olide] | – | > 100 µM | – | – | > 100 µM | – | – | > 100 µM | – | > 100 µM | – | > 100 µM | > 100 µM | – | – | poor solubility | – |
| CC1(C)CC[C@@]23CC[C@]4(C)[C@@](OC2=O)(C3C1)[C@@H](Br)CC1[C@@]2(C)CC[C@H](O)C(C)(C)C2CC[C@]14C (stereo partly drawn) [Compound 9, 12α-Bromo-3β-hydroxyolean-28-oic acid 28β→13β-olide] | – | 26.1 µM | 1.95 | – | 26.4 µM | 1.93 | – | 29.9 µM | 1.71 | 42 µM | 1.21 | 51 µM | 11 to 90 µM | ~2 | – | – | – |
| CC1(C)CC[C@@]23CC[C@]4(C)[C@@](OC2=O)(C3C1)[C@@H](Br)CC1[C@@]2(C)CCC(=O)C(C)(C)C2CC[C@]14C (stereo partly drawn) [Compound 10, 12α-Bromo-3-oxoolean-28-oic acid 28β→13β-olide] | 5.05 (0.03) | 12.9 µM | 3.02 | – | 12.1 µM | 3.24 | – | 15.6 µM | 2.51 | 21.4 µM | 1.83 | 39.1 µM | 11 to 90 µM | exceeds 2 | 5.82 (0.04) | – | 12 to 15 µM |
| CC1(C)CC[C@@]23CC[C@]4(C)[C@@](OC2=O)(C3C1)[C@@H](Br)CC1[C@@]2(C)CCC(=NO)C(C)(C)C2CC[C@]14C (stereo partly drawn) [Compound 11] | – | 25.1 µM | 1.15 | – | 21.8 µM | 1.33 | – | 34.6 µM | 0.83 | 55.4 µM | 0.52 | 28.9 µM | 22 to 35 µM | – | – | – | – |
| C=C(C)C1CC[C@]2(C)C(C[C@H](Br)[C@]34OC(=O)[C@@]5(CCC(C)(C)CC53)CC[C@]42C)[C@@]1(C)CCC#N (stereo partly drawn) [Compound 12, 12α-Bromo-3-nitrilo-3,4-secoolean-4(23)-ene-28-oic acid 28β→13β-olide] | 5.11 (0.01) | 6.27 µM | 1.46 | – | 6.22 µM | 1.47 | – | 7.88 µM | 1.15 | 9.23 µM | 0.99 | 9.13 µM | – | – | 5.43 (0.05) | – | < 10 µM |
| CC1(C)CC[C@@]23CC[C@]4(C)[C@@](OC2=O)(C3C1)[C@@H](Br)CC1[C@@]2(C)CCC(=O)NC(C)(C)C2CC[C@]14C (stereo partly drawn) [Compound 13, 12α-bromo-3-oxo-3a-aza-A-homoolean-28-oic acid 28β→13β-olide] | – | 73.1 µM | 1.22 | – | 75.8 µM | 1.18 | – | 89.3 µM | 1.00 | > 100 µM | – | 89.4 µM | 11 to 90 µM | – | – | poor solubility | – |
| CC1(C)CC[C@@]23CC[C@]4(C)[C@@](OC2=O)(C3C1)[C@@H](Br)CC1[C@@]2(C)CCC(=S)NC(C)(C)C2CC[C@]14C (stereo partly drawn) [Compound 14, 12α-bromo-3-thioxo-3a-aza-A-homoolean-28-oic acid 28β→13β-olide] | – | 65.9 µM | 1.28 | – | 68.3 µM | 1.23 | – | 66.2 µM | 1.27 | 87 µM | 0.97 | 84.1 µM | 11 to 90 µM | – | – | – | – |

— PMC12072072 (International Journal of Molecular Sciences, 2025)
